Experimental data reported in the supplement of paper PMC10883282.

Legend:
Test in all cases: relative viability vs DMSO control (72 h) (fraction); higher = more viable cells
[1] = system: SK-ES-1
Summary of the method: (§1)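 Sarcoma cell lines went into 384-well plates at densities chosen to reach 80–90% confluence. After 24 h, each well received 2.5 µl of serially diluted compound, with source plates running from 10 mM to 0.0002 mM, and the plates were kept 72 h at 37 °C, 5% CO2, alongside 0.1% DMSO vehicle and a 5 µM positive control. Relative viability was derived from ATPLite readings as percent growth and averaged over up to triplicate wells. The data were then rescaled so that 1 stands for full and 0 for none.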

[2] = system: G401
Summary of the method: as §1

[3] = system: VA-ES-BJ
Summary of the method: as §1

[4] = system: HT1080
Summary of the method: as §1

[5] = system: SK-LMS-1
Summary of the method: as §1

[6] = system: RD-ES
Summary of the method: as §1

[7] = system: SW982
Summary of the method: as §1

[8] = system: KHOS-NP
Summary of the method: as §1

[9] = system: A204
Summary of the method: as §1

[10] = system: HS729
Summary of the method: as §1

[11] = system: SW684
Summary of the method: as §1

[12] = system: SW872
Summary of the method: as §1

CS(=O)(=O)CCNCc1ccc(-c2ccc3ncnc(Nc4ccc(OCc5cccc(F)c5)c(Cl)c4)c3c2)o1 [Lapatinib]
Conditions	relative viability
[1], 0.00017 µM	1.05
[1], 0.00051 µM	1.04
[1], 0.00152 µM	1.02
[1], 0.00457 µM	0.98
[1], 0.01372 µM	1.06
[1], 0.04115 µM	0.985
[1], 0.1235 µM	1.02
[1], 0.3704 µM	1.02
[1], 1.111 µM	0.983
[1], 3.333 µM	0.772
[1], 10 µM	0.0529
[2], 0.00017 µM	1.01
[2], 0.00051 µM	1.01
[2], 0.00152 µM	1.01
[2], 0.00457 µM	1.01
[2], 0.01372 µM	1.02
[2], 0.04115 µM	1.04
[2], 0.1235 µM	1.01
[2], 0.3704 µM	0.966
[2], 1.111 µM	1.02
[2], 3.333 µM	1.01
[2], 10 µM	0.789
[3], 0.00017 µM	1.019
[3], 0.00051 µM	1.01
[3], 0.00152 µM	1.02
[3], 0.00457 µM	1.03
[3], 0.01372 µM	1.01
[3], 0.04115 µM	0.992
[3], 0.1235 µM	0.993
[3], 0.3704 µM	0.979
[3], 1.111 µM	0.985
[3], 3.333 µM	0.927
[3], 10 µM	0.451
[4], 0.00017 µM	1.04
[4], 0.00051 µM	1.035
[4], 0.00152 µM	1.04
[4], 0.00457 µM	1.05
[4], 0.01372 µM	1.07
[4], 0.04115 µM	1.04
[4], 0.1235 µM	1.04
[4], 0.3704 µM	1.059
[4], 1.111 µM	1.1
[4], 3.333 µM	1.09
[4], 10 µM	0.674
[5], 0.00017 µM	1.1
[5], 0.00051 µM	1.09
[5], 0.00152 µM	1.08
[5], 0.00457 µM	1.13
[5], 0.01372 µM	1.17
[5], 0.04115 µM	1.15
[5], 0.1235 µM	1.07
[5], 0.3704 µM	1.1
[5], 1.111 µM	1.11
[5], 3.333 µM	0.824
[5], 10 µM	0.361
[6], 0.00017 µM	0.951
[6], 0.00051 µM	0.948
[6], 0.00152 µM	0.954
[6], 0.00457 µM	0.958
[6], 0.01372 µM	0.963
[6], 0.04115 µM	0.964
[6], 0.1235 µM	0.97
[6], 0.3704 µM	0.977
[6], 1.111 µM	0.951
[6], 3.333 µM	0.931
[6], 10 µM	0.909
[7], 0.00017 µM	1.04
[7], 0.00051 µM	1.04
[7], 0.00152 µM	1.06
[7], 0.00457 µM	1.03
[7], 0.01372 µM	1.05
[7], 0.04115 µM	1.06
[7], 0.1235 µM	1.07
[7], 0.3704 µM	1.09
[7], 1.111 µM	1.09
[7], 3.333 µM	0.968
[7], 10 µM	0.0107
[8], 0.00017 µM	1.059
[8], 0.00051 µM	1.055
[8], 0.00152 µM	1.05
[8], 0.00457 µM	1.07
[8], 0.01372 µM	1.055
[8], 0.04115 µM	1.053
[8], 0.1235 µM	1.06
[8], 0.3704 µM	1.1
[8], 1.111 µM	1.07
[8], 3.333 µM	1.02
[8], 10 µM	0.93
[9], 0.00017 µM	1.06
[9], 0.00051 µM	1.07
[9], 0.00152 µM	1.06
[9], 0.00457 µM	1.07
[9], 0.01372 µM	1.06
[9], 0.04115 µM	1.08
[9], 0.1235 µM	1.07
[9], 0.3704 µM	1.09
[9], 1.111 µM	1.05
[9], 3.333 µM	0.701
[9], 10 µM	0.0212
[10], 0.00017 µM	0.93
[10], 0.00051 µM	0.935
[10], 0.00152 µM	0.873
[10], 0.00457 µM	0.878
[10], 0.01372 µM	0.939
[10], 0.04115 µM	0.921
[10], 0.1235 µM	0.93
[10], 0.3704 µM	0.887
[10], 1.111 µM	0.879
[10], 3.333 µM	0.794
[10], 10 µM	0.134
[11], 0.00017 µM	1.15
[11], 0.00051 µM	1.13
[11], 0.00152 µM	1.14
[11], 0.00457 µM	1.13
[11], 0.01372 µM	1.13
[11], 0.04115 µM	1.17
[11], 0.1235 µM	1.15
[11], 0.3704 µM	1.14
[11], 1.111 µM	1.19
[11], 3.333 µM	1.15
[11], 10 µM	0.707
[12], 0.00017 µM	1.03
[12], 0.00051 µM	1.03
[12], 0.00152 µM	1.03
[12], 0.00457 µM	1.02
[12], 0.01372 µM	1.01
[12], 0.04115 µM	1.05
[12], 0.1235 µM	1.05
[12], 0.3704 µM	1.05
[12], 1.111 µM	1.04
[12], 3.333 µM	0.895
[12], 10 µM	0.0477
